Reference: ChEMBL document CHEMBL5370642, “Synthesis and Bioevaluation of 3-(Arylmethylene)indole Derivatives: Discovery of a Novel ALK Modulator with Antiglioblastoma Activities” (J Med Chem, 2023)
Active and inactive are the calls of the source. No cut-off for these calls is given here.

How the values were obtained:
GL261 [1] = assay: Anti-proliferative activity against mouse GL261 cells assessed as cell viability incubated for 2 hrs by CCK8 assay; assay type: functional, cell-based; conditions: GL261, 2 h
U-87 MG [2] = assay: Anti-proliferative activity against human U-87 MG cells assessed as cell viability incubated for 2 hrs by CCK8 assay; assay type: functional, cell-based, U-87MG ATCC
GL261 [3] = assay: Anti-proliferative activity against […] GL261 cells assessed as inhibition rate incubated for 48 hrs by CCK8 assay; assay type: functional, cell-based
U-87 MG [4] = assay: Anti-proliferative activity against human U-87 MG cells assessed as inhibition rate incubated for 48 hrs by CCK8 assay; assay type: functional, cell-based; conditions: U-87MG ATCC

SMILES | IC50 (U-87 MG [2]) [µM] | IC50 (GL261 [1]) [µM] | inhibition (GL261 [3]) | inhibition (U-87 MG [4])
Cc1cc(Cc2cn(S(=O)(=O)c3ccc(Br)cc3)c3ccccc23)cc(C)c1O | > 100 | 100 | – | –
Cc1cc(Cc2cn(C(=O)c3ccc(Cl)cc3)c3ccccc23)cc(C)c1O | 41.3 | 100 | – | –
Cc1cc(Cc2cn(Cc3ccc(Cl)cc3)c3ccccc23)cc(C)c1O | 87.8 | 54.9 | – | –
Cc1ccc(S(=O)(=O)n2cc(Cc3cc(C)c(O)c(C)c3)c3cc(C)ccc32)cc1 | 20.7 | 12.3 | – | –
Cc1cc(Cc2c[nH]c3ccc(F)cc23)cc(C)c1O | 55.1 | 19.2 | – | –
Cc1ccc(S(=O)(=O)n2cc(Cc3cc(C)c(O)c(C)c3)c3cc([N+](=O)[O-])ccc32)cc1 | 23.2 | 19.7 | – | –
Cc1cc(Cc2c[nH]c3ccccc23)cc(C)c1O | > 100 | 12.8 | – | –
CC(C)c1cccc(C(C)C)c1O [PROPOFOL] | > 100 | 100 | – | –
Cc1ccc(S(=O)(=O)n2cc(Cc3cc(C(C)C)c(O)c(C(C)C)c3)c3ccccc32)cc1 | 75.4 | 90.3 | – | –
Cc1ccc(S(=O)(=O)n2cc(Cc3cc(C)c(O)c(C)c3)c3cc(NC(=O)CCCC[C@@H]4SC[C@@H]5NC(=O)N[C@@H]54)ccc32)cc1 | – | – | Active | Active
Cc1cc(Cc2cn(C(=O)c3ccc(N4CCOCC4)cc3)c3ccccc23)cc(C)c1O | 12.6 | 12.7 | – | –
Cc1cc(Cc2cn(C(=O)c3ccc(N4CCN(C)CC4)cc3)c3ccccc23)cc(C)c1O | 5.59 | 3.49 | – | –
Cc1ccc(S(=O)(=O)n2cc(Cc3cc(C)c(O)c(C)c3)c3cc(F)ccc32)cc1 | 42.6 | 100 | – | –
Cc1ccc(S(=O)(=O)n2cc(Cc3cc(C)c(O)c(C)c3)c3cc(C#N)ccc32)cc1 | 30.2 | 9.6 | – | –
Cc1cc(Cc2c[nH]c3ccc([N+](=O)[O-])cc23)cc(C)c1O | 74.6 | 43.8 | – | –
Cc1cc(Cc2cn(C(=O)c3ccncn3)c3ccccc23)cc(C)c1O | > 100 | 13.3 | – | –
Cc1cc(Cc2cn(S(=O)(=O)c3ccc([N+](=O)[O-])cc3)c3ccccc23)cc(C)c1O | > 100 | 100 | – | –
Cc1cc(Cc2cn(C)c3ccccc23)cc(C)c1O | 7.96 | 12.7 | – | –
C[C@@H](Oc1cc(-c2cnn(C3CCNCC3)c2)cnc1N)c1c(Cl)ccc(F)c1Cl [CRIZOTINIB] | 7.29 | 3.43 | – | –

Second part, led by results:

IC50 (U-87 MG [2]) [µM] | SMILES | IC50 (GL261 [1]) [µM] | inhibition (GL261 [3]) | inhibition (U-87 MG [4])
> 100 | Cc1cc(Cc2cn(S(C)(=O)=O)c3ccccc23)cc(C)c1O | 100 | – | –
10.4 | COc1ccc2c(Cc3cc(C)c(O)c(C)c3)cn(S(=O)(=O)c3ccc(C)cc3)c2c1 | 38.5 | – | –
> 100 | COc1c(C)cc(Cc2cn(S(=O)(=O)c3ccc(C)cc3)c3ccccc23)cc1C | 100 | – | –
> 100 | Cc1ccc(S(=O)(=O)n2cc(Cc3cc(C(C)(C)C)c(O)c(C(C)(C)C)c3)c3ccccc32)cc1 | 100 | – | –
28.1 | COc1ccc2c(c1)c(Cc1cc(C)c(O)c(C)c1)cn2S(=O)(=O)c1ccc(C)cc1 | 56.1 | – | –
3.52 | Cc1cc(Cc2cn(S(=O)(=O)c3ccc([N+](=O)[O-])c(Cl)c3)c3ccccc23)cc(C)c1O | 15.7 | – | –
58.3 | CC(=O)n1cc(Cc2cc(C)c(O)c(C)c2)c2ccccc21 | 25.4 | – | –
> 100 | OCc1c[nH]c2ccccc12 [INDOLE-3-CARBINOL] | 100 | – | –
> 100 | Cc1cc(Cc2cn(C(=O)c3ccc([N+](=O)[O-])cc3)c3ccccc23)cc(C)c1O | 100 | – | –
> 100 | CCn1cc(Cc2cc(C)c(O)c(C)c2)c2ccccc21 | 100 | – | –
> 100 | Cc1cc(Cc2cn(C(=O)c3ccnc4ccccc34)c3ccccc23)cc(C)c1O | 11.4 | – | –
100 | CCC(=O)n1cc(Cc2cc(C)c(O)c(C)c2)c2ccccc21 | 2850 | – | –
